Test system: rat breast cancer cell MTF7
Assay: Action of 5ALA on MTF7 cells in the cell microchip (fluorescence and growth after Ar ion laser irradiation)
Assay type: cell-based
Protocol: The cell microchip prepared in Example 1 was used to examine the action of […] (5ALA) on rat breast cancer cell MTF7 according to a method described in Journal of Japan Society for Laser Surgery and Medicine, Vol. 17, No. 1, pp. 1-10 (1996).
MTF7 was provided by Dr. Stephan P. Tomasovic, M. D. Anderson Cancer Center, […], US. MTF7 was proliferated in an a-MEM medium (Sigma Corporation) supplemented with 10% fetal calf serum (FCS) in an incubator for cell culture (37° C. in 5% CO2 under humidity).
The cell microchip (FIG. 4) prepared in Example 1 was placed in a 90 mmf Petri dish, and the flow channel (A) 33, flow channel (B) 34 and flow channel (C) 35 were filled with the above medium. […]
Then the cell microchip wherein the MTF7 cells had been proliferated was removed from the Petri dish, and the above medium was injected via a micro pump into the liquid reservoir 37 of the flow channel (A) 33, and while the above medium containing 5ALA manufactured by Sigma Corporation) at various concentrations (25, 50, 100, 200 and 400 mg/ml) was injected into the liquid reservoir 37 of the flow channel (B) 34, the cells were observed under a fluorescence microscope equipped with the incubator. […] The cells into which the 5ALA-containing medium had not been injected emitted no fluorescence.

Structure (SMILES): NCC(=O)CCC(=O)O [5ALA, d-aminolevulinic acid]
- emission of fluorescence under a fluorescence microscope (MTF7 cells at 3-pronged junction, medium containing 5ALA at 25, 50, 100, 200 and 400 mg/ml, irradiated with Ar ion laser at 488 nm, 200 mW): emission of fluorescence was observed
- cell growth / survival on continued culture after laser irradiation (MTF7 cells emitting fluorescence (5ALA-containing medium), observed with time under a microscope after Ar ion laser irradiation at 488 nm): terminated their growth and fell eventually into death
